This is an account of results in PubChem BioAssay AID179 (DTP/NCI, 2004).

The test relates to CEM cells HIV-1 protection, formazan growth assay. Description: NCI AIDS Antiviral Assay. The following applies: for IC50: measured here: growth of uninfected CEM cells. Put shortly:
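Steps: treat uninfected and HIV-1-infected human CEM cells at five drug levels; quantify growth by soluble formazan; retest any compound reaching 50% protection; classify actives from the retest.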

Activity calls are given as the source filed them.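 How the source made its calls: active means compounds giving half or more protection of infected cells from virus-caused growth loss, again on retest; inactive means the rest.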

A word on the EC50: it is the concentration giving half of the maximal effect. By IC50 is commonly meant the concentration that gives 50% inhibition.

As to `COC(=O)c1nn2c(=O)[nH]c3ccccc3c2c1C(=O)OC`, the EC50 was greater than 562 µM and the IC50 turned out to be 331 µM.
As to `CC1CCC2(C(=O)O)CCC3(C)C(=CCC4C5(C)CCC(O)C(C)(C)C5CCC43C)C2C1C` (stereo not given), the EC50 is greater than 200 µM and the IC50 turned out to be 14.8 µM.
With `Cc1ccc(C)c(N2C(=O)C(=O)C(c3nc4ccccc4o3)C(=O)C2=O)c1`, the result was inactive.
In the case of `Cc1ccc(NC(=O)CCc2cc(C(C)(C)C)nc(NC#N)n2)cc1C`, the outcome was inactive.
`Cc1csc([C@H]2CCC3[C@@H]4CC=C5C[C@@H](O)CC[C@]5(C)C4CC[C@@]32C)n1` (stereo not given in full): the EC50 was greater than 67.6 µM and the IC50 is greater than 67.6 µM.
On to `Cc1cc(C2(c3cc(C)c(O)c4ncccc34)OC(=O)c3ccccc32)c2cccnc2c1O`, for which the EC50 was greater than 2 µM and the IC50 was found to be 0.102 µM.
In the case of `COC(=O)C1=C(C(=O)OC)C2(CCCCCC2=O)OC1=O` (stereo not given), the EC50 was greater than 851 µM and the concentration for half-maximal inhibition (IC50) is 45.7 µM.
For `COc1ccc(-c2ccc(CC(=O)O)cc2)cc1OC`, the EC50 is greater than 36.3 µM and the IC50 was greater than 36.3 µM.
Consider `OCCO[P+]1(OCCO)n2c3ccc2C(c2ccccc2)=C2C=CC(=N2)C(c2ccccc2)=c2ccc(n21)=C(c1ccccc1)C1=NC(=C3c2ccccc2)C=C1`, for which the EC50 is greater than 0.2 µM and the IC50 is 0.0813 µM.
On to `CC(=O)NCCC1CN(C(=O)/C=C\I)c2ccccc21` (stereo not given), for which the EC50 is greater than 200 µM and the half-maximal inhibitory concentration (IC50) is 9.33 µM.
In the case of `Cc1c(N=Nc2ccccc2)c(-c2ccccc2)n(C2OC(CO)C(O)C(O)C2O)c(=S)c1C#N` (stereo not given), the EC50 is greater than 200 µM and the IC50 was found to be 15.1 µM.
The matching figures for `Nc1c(C(=O)N/N=C/c2ccccc2)sc(=S)n1-c1ccccc1`: greater than 4.07 µM and greater than 4.07 µM.
Consider `Cc1ccnc(NS(=O)(=O)c2ccc(NC(=O)c3ccc4nc5ccccc5c(Nc5ccc(S(=O)(=O)Nc6nccc(C)n6)cc5)c4c3)cc2)n1`, for which the EC50 was greater than 200 µM and the IC50 was found to be 83.2 µM.
As to `COC(=O)c1ccc2n1C1CC3CC(CC2C3)C1`, the EC50 was greater than 200 µM and the IC50 is 87.1 µM.
On to `Cc1cccc(C)c1NC(=O)/C(CC(=O)CC(c1ccccc1)c1c(O)c2ccccc2oc1=O)=N/O` (stereo not given), for which the EC50 was greater than 263 µM and the IC50 was 204 µM.
With `COC(=O)c1cc(C(=O)Nc2cc(Cc3cc(NC(=O)c4ccc(OC)c(C(=O)OC)c4)c(OC)c(C(=O)OC)c3)cc(C(=O)OC)c2OC)ccc1OC`, the EC50 is greater than 200 µM and the IC50 was greater than 200 µM.
In the case of `O=c1n(Cc2ccccc2)c2ccccc2n1CC1CS1` (stereo not given), the EC50 was greater than 45.7 µM and the 50% inhibitory concentration (IC50) amounted to 19.5 µM.
As to `NCCSC(C[N+](=O)[O-])c1ccccc1Cl` (stereo not given), the EC50 was greater than 200 µM and the half-maximal inhibitory concentration (IC50) turned out to be 2.19 µM.
With `Cn1nc(C(N)=O)c(=O)[nH]c1=O`, the EC50 was greater than 200 µM and the IC50 is greater than 200 µM.
For `O=C(Cn1c(=O)cc(Nc2ccccc2)c2ccccc21)Nc1ccccc1`, the EC50 is greater than 200 µM and the concentration for half-maximal inhibition (IC50) worked out at 89.1 µM.
As to `CCCCCCCCCCCCCCCCCCCCCCNc1ccn(C2CC(OP(=O)(O)OCC3OC(n4cc(C)c(=O)[nH]c4=O)CC3N=[N+]=[N-])C(COP(=O)(O)OCC3CCC(n4ccc(N)nc4=O)O3)O2)c(=O)n1` (stereo not given), the EC50 was 0.234 µM and the 50% inhibitory concentration (IC50) came to 38 µM.
As to `COc1ccc(C(NS(=O)(=O)c2ccc(C)cc2)c2c(C(CBr)OC)c3ccccc3n2S(=O)(=O)c2ccccc2)cc1OC` (stereo not given), the EC50 was greater than 151 µM and the 50% inhibitory concentration (IC50) was 31.6 µM.
As to `CN1CN(c2ccccc2)C2(CCN(C3Nc4ccccc4O3)CC2)C1=O` (stereo not given), the EC50 was greater than 200 µM and the 50% inhibitory concentration (IC50) was determined as 74.1 µM.
As to `Cc1cc(Cc2cc(C)c(NC(=O)C(=O)C3C(=O)NC(=S)NC3=O)c(C(C)C)c2)cc(C(C)C)c1NC(=O)C(=O)C1C(=O)NC(=S)NC1=O`, the result was inactive.
Take `CC(C)(C)n1[se]c2ccccc2c1=O`: the EC50 is greater than 129 µM and the IC50 was found to be 9.33 µM.
For `CC(CO)CCNc1ncnc2c1ncn2CCC#N` (stereo not given), the EC50 is greater than 200 µM and the 50% inhibitory concentration (IC50) is greater than 200 µM.
Consider `CCc1cccc(CC)c1NC(=O)C(=O)Cc1nc2ccccc2o1`, for which the EC50 was greater than 537 µM and the 50% inhibitory concentration (IC50) is greater than 537 µM.
Turning to `O=C(CCc1nnc2s/c(=C\c3ccccc3)c(=O)n12)Nc1cc(Cl)ccc1Cl`, the EC50 was greater than 11.7 µM and the concentration for half-maximal inhibition (IC50) was greater than 11.7 µM.
As for `Clc1ccc(C2C3COc4ccccc4C3=NN2c2ccccc2)cc1` (stereo not given), the EC50 was greater than 151 µM and the half-inhibitory concentration (IC50) was 1.95 µM.
On the same counts, the results for `CCCCNCc1cc(S(=O)(=O)N2CCCCC2)c2cccnc2c1O` are greater than 47.9 µM and 8.91 µM.
In the case of `CCOC(=O)C(/C=N/C(=S)Nc1c(C)cccc1C)=C(/O)c1ccccc1`, the EC50 was greater than 200 µM and the half-inhibitory concentration (IC50) is greater than 200 µM.
As for `C#CC(C)(C)OCCCCOc1cc(O)c2c(=O)c3ccccc3n(C)c2c1`, the EC50 is greater than 3.8 µM and the 50% inhibitory concentration (IC50) was greater than 3.8 µM.
Turning to `C[N+](C)(CCCCCC[N+](C)(C)C1c2ccccc2-c2ccccc21)C1c2ccccc2-c2ccccc21`, the EC50 is greater than 200 µM and the IC50 is 182 µM.
`COC(=O)[C@@H]1COC(=O)N1`: the EC50 is greater than 200 µM and the IC50 was greater than 200 µM.
`Oc1cc2cccc[n+]2c2cccc(Cl)c12`: the EC50 is greater than 200 µM and the concentration for half-maximal inhibition (IC50) came to 34.7 µM.
On to `O=C(Nc1cccc(C(=O)Nc2ccc(C3=NCCN3)cc2)c1)c1ccc(C2=NCCN2)cc1`, for which the 50% effective concentration (EC50) is 9.12 µM and the IC50 worked out at 155 µM.
On to `COc1c(O)ccc2oc3cccc(O)c3c(=O)c12`, for which the EC50 is greater than 200 µM and the IC50 worked out at 110 µM.
Regarding `C[C@@](O)(/C=C/[C@H]1CC=CC(=O)O1)[C@@H](C[C@@H](O)\C=C/C=C\C=C\CO)OP(=O)(O)O`, the result was inactive.
Consider `COP1(=S)OCC2OC(n3cc(C)c(=O)[nH]c3=O)CC2O1` (stereo not given), for which the EC50 is greater than 100 µM and the IC50 is greater than 100 µM.
Regarding `COC(=O)CCC1(CCC(=O)OC)CCCCCCC(CCC(=O)OC)(CCC(=O)OC)C(=O)C1=O`, the EC50 is greater than 200 µM and the IC50 is greater than 200 µM.
Consider `C=C=C(C)[Si](C)(C)C`, for which the EC50 is greater than 200 µM and the concentration for half-maximal inhibition (IC50) was greater than 200 µM.
Regarding `CN(C)CC/C(=N\Nc1c(Cl)cccc1Cl)c1ccccc1`, the outcome was inactive.
In the case of `Clc1c(Cl)c2c(Cl)c(Cl)c1C[P+](c1ccccc1)(c1ccccc1)CC[P+](c1ccccc1)(c1ccccc1)Cc1c(Cl)c(Cl)c(c(Cl)c1Cl)C[P+](c1ccccc1)(c1ccccc1)CC[P+](c1ccccc1)(c1ccccc1)C2`, the EC50 is greater than 66.1 µM and the IC50 was determined as 4.68 µM.
For `COc1cc2c(c(OC)c1OC)-c1cc3c(cc1C(=O)CC(C(=O)O)(C(=O)O)C2)OCO3`, the EC50 was greater than 562 µM and the IC50 was greater than 562 µM.
For the compound `CSC1SCC2C(=O)N(C)C(C(C)C)C(=O)OCC(NC(=O)c3cnc4ccccc4n3)C(=O)NC(C)C(=O)N(C)C1C(=O)N(C)C(C(C)C)C(=O)OCC(NC(=O)c1cnc3ccccc3n1)C(=O)NC(C)C(=O)N2C` (stereo not given), the EC50 is greater than 0.12 µM and the IC50 was found to be 0.000355 µM.
In the case of `O=C(CCN1CCCCC1)N1CCc2c([nH]c3ccccc23)C1c1cccnc1` (stereo not given), the EC50 was greater than 13.5 µM and the half-maximal inhibitory concentration (IC50) is greater than 13.5 µM.
Regarding `O=C(OCC1OC(c2nn[nH]n2)C(OC(=O)c2ccccc2)C1OC(=O)c1ccccc1)c1ccccc1` (stereo not given), the EC50 was greater than 200 µM and the half-maximal inhibitory concentration (IC50) is 70.8 µM.
Turning to `CCN1CC2(OC(=O)c3ccccc3NC(C)=O)CCC(OC)C34C1C(CC23)C1(O)CC(OC)C2CC4C1(O)C2OC` (stereo not given), the result was inactive.
Consider `Cc1nc(C)c(C(=O)NNC(=O)Cc2ccccc2)cc1C(=O)NNC(=O)Cc1ccccc1`, for which the EC50 was greater than 200 µM and the IC50 was greater than 200 µM.
As to `Cc1ccc2[nH]c3c(c2c1)C1CCC(C(C)(C)C)CC1C1C(=O)N(c2ccc4c(c2)OCO4)C(=O)C31` (stereo not given), the EC50 was greater than 200 µM and the half-inhibitory concentration (IC50) amounted to 11.5 µM.
Turning to `COc1cc(C(=O)/C=C/c2ccc(OCCSCCCCCCCCCCSCCOc3ccc(/C=C/C(=O)c4cc(OC)c(OC)c(OC)c4)cc3)cc2)cc(OC)c1OC`, the EC50 is greater than 151 µM and the half-maximal inhibitory concentration (IC50) is greater than 151 µM.
As for `O=C1CCCC2=C1CC1=C(CCCC1=O)N2c1cccc2ccccc12`, the concentration giving a half-maximal response (EC50) is 49 µM and the IC50 was found to be 174 µM.
With `CCCN(CCC)C(=S)S`, the EC50 was greater than 200 µM and the IC50 is greater than 200 µM.
For `COc1ccc(Br)c(CN2CCc3ccccc32)c1OS(=O)(=O)c1ccc(C)cc1`, the result was inactive.
Take `Cc1ccc(/C=N/NS(=O)(=O)c2ccc(/C=C3\NC(=O)NC3=O)cc2)cc1`: the EC50 was greater than 200 µM and the IC50 is greater than 200 µM.
`Cc1ccc(O)c(C(=O)CCCC(=O)c2cc(C)ccc2O)c1`: the EC50 was greater than 12 µM and the 50% inhibitory concentration (IC50) was greater than 12 µM.
For `O=C(O)c1sccc1-c1cccc2ccccc12`, the EC50 is greater than 200 µM and the IC50 worked out at 83.2 µM.
Regarding `O=C1C(S)=[N+](O)c2ccccc2[N+]1=O`, the EC50 is greater than 200 µM and the IC50 was greater than 200 µM.
Take `N#C[C@H](c1ccccn1)c1nc2ccccc2nc1Cl`: the EC50 is greater than 200 µM and the IC50 is 115 µM.
For `c1ccc(C[N+]23CCC(CC2)C3c2ccccc2)cc1` (stereo not given), the EC50 is greater than 832 µM and the IC50 stood at 148 µM.
`CCOC(=O)C1=C(N)SCCC1`: the EC50 is greater than 1320 µM and the concentration for half-maximal inhibition (IC50) was 257 µM.
On to `COc1cc(C)cc(C(=O)OCc2ccccc2)c1C1=C(Cl)C(=O)C(Cl)=CC1=O`, for which the EC50 is greater than 52.5 µM and the half-maximal inhibitory concentration (IC50) is 8.51 µM.
With `CC1=CC(=O)Nc2cncnc2N1`, the EC50 is greater than 77.6 µM and the concentration for half-maximal inhibition (IC50) was greater than 77.6 µM.
On to `Fc1c(F)c(-c2c(F)c(F)c(S)c(F)c2F)c(F)c(F)c1S`, for which the result was inactive.
With `CC(=O)N1[C@H](C(=O)O)CS[C@H]1c1ccc(F)cc1`, the outcome was inactive.
For `C=CCC1[C@@H](C(C)(C)C(C(C)=O)C(=O)C(=O)OC)OC(C(C)(C)C)N1C(=O)OC` (stereo not given in full), the EC50 was greater than 63.1 µM and the IC50 is greater than 63.1 µM.
Take `O=C1OC(c2ccccc2)=N/C1=C\c1c(O)cc(O)cc1O`: the EC50 was greater than 87.1 µM and the IC50 is greater than 87.1 µM.
